# Laboratory results published in US10111431B2, “Application of biofilm formation inhibiting compounds enhances control of citrus canker” (priority 2013, dated 2018).
# Tests used:
# [1] = tested on: X. citri subsp. citri strain 306; assay: Determination of minimum inhibitory concentrations (MICs) in NB medium, 96-well plate; assay type: cell-based, Xanthomonas citri subsp. citri; settings: 48 h
# Protocol: Xac strain 306 was grown in NB at 28° C. with shaking at 200 rpm for 7 h. The cultures were standardized to an OD600 of 0.03 (5×10^7 colony forming unit (CFU)/mL) in NB and then aliquoted into wells of a 96-well plate, 190 μL per well. The initial test concentrations of the compounds were diluted (1:20) in the culture (10 μl of compound in 190 μl of culture) and incubated at 28° C. under stationary conditions. The cultures were monitored at 24 and 48 h at OD600, and the lowest concentration resulting in no growth after 48 h compared to the control samples was defined as the MIC for Xac strain 306. All determinations were conducted in eight replicate wells and repeated three times.
# Xac 306 biofilm cells = assay: Resistance of Xac biofilm cells to copper, cell viability assay in glass tubes; assay type: cell-based, Xanthomonas citri subsp. citri; settings: CuSO4 (1.0 mM) alone, 24 h
# Protocol: The level of copper resistance of biofilms was evaluated using a cell viability assays. Briefly, Xac biofilms were prepared using NB with stationary incubation in glass tubes as described above. After 48 h-incubation, the cultures were removed and bacterial cells attached to the tubes were gently washed three times with SDW. One milliliter of fresh NB with CuSO4 (1.0 mM), D-leucine (10 mM) or IAN (100 μg/mL), or a combination of these compounds was added to each tube. NB alone was used as control. Tubes were kept at room temperature for 24 h and shaken vigorously for 5 min. The suspensions were diluted in 10-fold series, and 10 μL of each dilution spotted in triplicate on NA plate. Plates were incubated at 28° C. for 48 to 72 h prior to assessing bacterial growth. Colonies that grew near the dilution end-point were counted and bacterial populations in the initial suspensions prior to dilution were calculated. Each treatment compromises four replicates and the experiment repeated three times.
# [2] = tested on: Xac 306 on grapefruit leaves; assay: Plant test in greenhouse, spray inoculation of grapefruit leaves; assay type: in vivo, Xanthomonas citri subsp. citri
# Protocol: The effect of selected biofilm inhibitors on Xac infection/virulence-was investigated using 20-week-old potted grapefruit (Citrus paradise cv. Duncan grapefruit) plants in a quarantine greenhouse at the Citrus Research and Education Center, Lake Alfred, Fla. Copper (CuSO4, 100 μg/mL), D-leucine (10 mM), IAN (100 μg/mL) and a combination of these compounds were individually prepared in 100 ml of SDW. Bacterial inoculum was prepared by growing Xac 306 on NA plates at 28° C. for 48 h, suspending in SDW, adjusting concentration to approximately OD600=0.3 (5×10^8 CFU/mL). The inoculation was performed by a spray method as described previously (Li and Wang, 2012) with modifications. Briefly, the abaxial surfaces of fully expanded, immature leaves of each plant were sprayed with the following treatments: SDW, Xac 306, and Xac 306 combined with CuSO4 (100 μg/mL), D-leucine (10 mM), IAN (100 μg/mL), or a combination of these compounds. Silwett-L77 (silicone-polyether copolymer, Fisher) was added to each treatment at a 0.03% (V/V) final concentration. After inoculation, the plants were covered with plastic bags for 24 h to maintain a high (>90%) relative humidity and then kept in a greenhouse (approximately 60% relative humidity) for symptom development. All inoculations included a minimum of three immature leaves at a similar developmental stage from each plant, and each treatment comprised four plants. The experiments were repeated three times independently. SDW was applied as a negative control, and Xac306 mixed with SDW as positive control. To determine whether the timing of application of biofilm inhibitors in relation to Xac306 affected canker symptom suppression, the biofilm inhibitors were inoculated on leaves 6 h prior to or after inoculation with Xac306.
# For bacterial population assays, the leaves of grapefruit plants were inoculated as described above. Two leaf discs randomly selected from each of three inoculated leaves were cut with a cork borer (0.8 cm in diameter) and then ground in 1 mL of SDW. The suspensions were serially diluted and plated on NA plates containing rifamycin. After incubation at 28° C. for 48 h, bacterial colonies were counted and the number of CFU per square centimeter of leaf tissue was calculated. The assays were repeated three times independently.
# Xac306 biofilm formation = assay: Static biofilm formation assay in 96-well polystyrene plates with crystal violet staining; assay type: cell-based, Xanthomonas citri subsp. citri; settings: 0 to 20 mM for D-leucine and D-serine; 0 to 150 μg/mL for IAN
# Protocol: A static biofilm formation assay in 96-well polystyrene plates coupled with CV staining was performed as previously reported with modifications (Li and Wang, 2011). Briefly, a 96-well polystyrene plate (Nunclon surface, Nuncbrand, Denmark) was prepared with 170 μL NB plus 1.0% glucose per well. Aliquots of 20 μL each of the different concentrations of the tested compound were pipetted into eight wells containing 170 μL of NB plus 1.0% glucose. To each of these wells was added 10 μL of the standardized overnight Xac 306 culture (OD600=1.0). Control wells contained NB plus 1.0% glucose and SDW or 0.1% DMSO as a sterility control, or standardized overnight Xac 306 culture as a growth control. The plate was covered by a MicroWell lid (Nunclon), sealed with parafilm to prevent evaporation and incubated at 28° C. for 48 h without shaking. After incubation, the planktonic growth was measured at OD600. To quantify the amount of biofilms formed on the surfaces of the wells, the culture was removed from the wells. After drying, the wells were washed twice with 200 μl of SDW for 5 min, allowed to dry then 200 μl of 0.1% CV added. After 30 minutes, the CV was removed. The wells were washed with excess SDW to remove unbound CV and air dried in an inverted position for 2 h. Afterward, 200 μl of 95% ethanol was added to the wells and incubated for 30 min at room temperature to elute bound CV. The eluted CV was 2-fold diluted in double distilled water and the absorbance at 590 nm was measured. Each data point was averaged from eight replicate wells.
Compound,"MIC of CuSO4 in the presence of D-leucine and IAN ([1]; D-leucine 10 mM and IAN 100 μg/mL, planktonic cells, NB medium)","MIC of CuSO4 in the presence of D-leucine ([1]; D-leucine 10 mM, planktonic cells, NB medium)","MIC of CuSO4 in the presence of IAN ([1]; IAN 100 μg/mL, planktonic cells, NB medium)","MIC ([1]; compound alone, NB medium, 28° C., stationary, OD600)",viable cells in biofilms (Xac 306 biofilm cells),"level of canker lesions on sprayed leaves ([2]; D-leucine 10 mM, IAN 100 μg/mL, CuSO4 100 μg/mL)","log reduction in the number of CFU compared to untreated control ([2]; grapefruit leaves, 7 to 28 days after inoculation)",dose dependence of Xac306 biofilm decrease (Xac306 biofilm formation),MIC ([1]; Xanthomonas citri)
O=S(=O)([O-])[O-].[Cu+2] [CuSO4],250 µM,250 µM,250 µM,500 µM,3×10^7 CFU/mL,less than that sprayed with the pathogen alone,~1.0 log,,
N[C@H](CO)C(=O)O [D-serine],,,,,,,,decreased Xac306 biofilm in a dose-dependent manner,8000 µM
